According to patent publication US20100292185A1, “BETA-LACTAMASE INHIBITORS” (priority 2009, published 2010):
Where a name gives a salt, the structure may show the parent alone. Read-outs that look alike come from different tables or passages of the source.

Key:
[1] = molecular target: T1, VIM-2 metallo β-lactamase (Pseudomonas aeruginosa, UniProt Q9K2N0); test: β-lactamase enzyme inhibition assay (nitrocefin substrate), VIM-2; format: biochemical; details: nitrocefin 100 μM, 37° C., PBS pH 7.0; read-out: VIM-2 IC50
T1 construct: made in house
Procedure: Isolation of β-lactamases. For SHV-5, p99 AmpC, KPC-2 and CTX-M15 β-lactamases, E. coli BL21(DE3) bacterial cells carrying expression plasmids (expressed as native untagged proteins) for the individual β-lactamases were grown in 1 L of Superbroth (Teknova Inc. Hollister, Calif.) supplemented with 100 μg/ml kanamycin and 1×5052 (0.5% glycerol, 0.05% glucose and 0.2% α-lactose) at 35° C. for 18-20 hours. Cells were harvested by centrifugation (4,000×g, 4° C., 20 min), and resuspended in 50 ml of 10 mM HEPES pH 7.5 (1/20 of the initial volume). The cells were lysed by sonication (5 pulses of 45 seconds) at 45 W on ice. The lysates were clarified by centrifugation at 10,000×g for 40 minutes at 4° C. Samples were diluted 5-fold in 50 mM sodium acetate pH 5.0, stored overnight at 4° C., after which they were centrifuged at 10,000×g for 30 minutes to clarify, and filtered through 0.45 μm filters. The samples were loaded onto a 5 ml Capto S sepharose cation exchange column (GE Healthcare) pre-equilibrated with 50 mM sodium acetate pH 5.0. The column was washed with 5 column volumes of 50 mM sodium acetate pH 5.0 to wash out unbound protein and a linear gradient of NaCl (0 to 500 mM) was used to elute the protein (over 16 CV) from the column. Fractions were assayed for β-lactamase activity using Centa (Calbiochem, Gibbstown, N.J.) as a reporter β-lactamase substrate for activity in the isolated fractions. Active fractions were pooled, concentrated and further purified by gel filtration chromatography on a Superdex 75 prep grade gel filtration column (GE Healthcare, Piscataway, N.J.) pre-equilibrated in 50 mM Hepes pH 7.5, 150 mM NaCl. Active fractions were pooled concentrated, quantitated by BCA protein determination (Thermo Scientific, Rockford, Ill.), and frozen at −80° C. in 20% glycerol until use.
For VIM-2 metallo (β-lactamase, the procedure was identical with the following exceptions: 1) the protein was not pH adjusted to pH 5 with 50 mM sodium acetate, 2) the chromatography step was changed to a 5 ml Q sepharose anion exchange column pre-equilibrated with 50 mM Hepes pH 7.5, and 3) elution of the protein was achieved by a linear gradient of NaCl (0-600 mM). Finally, the VIM-2 purification required a second run (3rd step) on the Q sepharose anion exchange column to achieve acceptable purity (>90%).
(§1) β-lactamase Inhibition. To determine the level of inhibition of β-lactamase enzymes, compounds were diluted in PBS at pH 7.0 to yield concentrations between 100 and 0.005 μM in microtiter plates. An equal volume of diluted enzyme stock was added, and the plates were incubated at 37° C. for 10 min. Nitrocefin solution was then dispensed as substrate into each well at a final concentration of 100 μM, and the plates were immediately read with the kinetic program at 486 nm for 10 min on the SPECTRAMAX® Plus^384 (high-throughput microplate spectrophotometer; Molecular Devices Corp., Sunnyvale, Calif.). Maximum rates of metabolism were then compared to those in control wells (without inhibitors), and percentages of enzyme inhibition were calculated for each concentration of inhibitor. The concentration of inhibitor needed to reduce the initial rate of hydrolysis of substrate by 50% (IC50) was calculated as the residual activity of β-lactamase at 486 nm using the SoftMax Pro 5.0 software (Molecular Devices Corp.).
Using the methodology described above, examples of the current invention were evaluated for their ability to inhibit β-lactamase enzymes. The results of these assays are summarized in Table 2 for representative enzymes across different subtypes (note SHV-5 and CTXM-15 exemplify different subclasses of Ambler Class A Extended Spectrum Beta Lactamases, KPC-2 exemplifies Class A carbapenemases, P99 represents chromosomal Class C AmpC, VIM-2 exemplifies subclass B1 of metallo-β-lactamases, and OXA-23 represents chromosome-encoded Class D oxacillin-hydrolyzing β-lactamases), NT=not tested.

[2] = test system: E. coli expressing the Class A ESBL SHV-5; test: In vitro antibacterial assay of β-lactamase inhibition (broth microdilution MIC), E. coli SHV-5; format: cell-based
In short: (§2)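 CAMHB microdilution, CLSI inoculum. Cells grown 3-5 h + 50 μg/mL ampicillin. Cpd 2-fold serial, 8–0.015 μg/mL final, with β-lactam partner. 37° C, 16-20 h; visual MIC.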

KPC-2 β-lactamase = molecular target: T2, KPC-2 β-lactamase (Klebsiella pneumoniae, UniProt Q9F663); test: β-lactamase enzyme inhibition assay (nitrocefin substrate), KPC-2; format: biochemical
T2 construct: expressed as native untagged proteins; made in house; host or cells: E. coli BL21(DE3)
In short: (§3)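 Native untagged enzymes were expressed in E. coli BL21(DE3) and purified by cation exchange and gel filtration. Compounds (100–0.005 µM, PBS pH 7.0) were preincubated with enzyme for 10 min at 37 °C, then 100 µM nitrocefin was added and read kinetically at 486 nm for 10 min. IC50 is the concentration giving 50% reduction of initial hydrolysis rate versus uninhibited controls.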

[3] = test system: K. pneumoniae expressing the Class A Extended Spectrum Beta-Lactamase (ESBL) CTX-M-15; test: In vitro antibacterial assay of β-lactamase inhibition (broth microdilution MIC), K. pneumoniae CTX-M-15; format: cell-based
In short: as §2

p99 AmpC β-lactamase = molecular target: T3, p99 AmpC β-lactamase (Enterobacter cloacae, UniProt P05364); test: β-lactamase enzyme inhibition assay (nitrocefin substrate), P99 AmpC; format: biochemical
T3 construct: expressed as native untagged proteins; made in house; host or cells: E. coli BL21(DE3)
In short: as §3

[4] = test system: K. pneumoniae expressing the Class A carbapenemase KPC-2; test: microbe, parasite or virus in culture; format: cell-based
In short: as §2

[5] = test system: E. cloacae expressing the Class C P99+; test: In vitro antibacterial assay of β-lactamase inhibition (broth microdilution MIC), E. cloacae P99+; format: cell-based
In short: as §2

CTX-M15 β-lactamase = molecular target: T4, CTX-M15 β-lactamase (Escherichia coli, UniProt Q9EXV5); test: β-lactamase enzyme inhibition assay (nitrocefin substrate), CTXM-15; format: biochemical
T4 construct: expressed as native untagged proteins; made in house; host or cells: E. coli BL21(DE3)
In short: as §3

SHV-5 β-lactamase = molecular target: T5, SHV-5 β-lactamase (Klebsiella pneumoniae, UniProt P0A3M1); test: β-lactamase enzyme inhibition assay (nitrocefin substrate), SHV-5; format: biochemical
T5 construct: expressed as native untagged proteins; made in house; host or cells: E. coli BL21(DE3)
In short: as §3

OXA-23 β-lactamase = molecular target: T6, OXA-23 β-lactamase (Acinetobacter baumannii, UniProt Q9L4P2); test: β-lactamase enzyme inhibition assay (nitrocefin substrate), OXA-23 crude extract; format: biochemical; details: nitrocefin 100 μM, 37° C., PBS pH 7.0; read-out: OXA-23 IC50
T6 construct: crude β-lactamase extracts were prepared from 20 ml overnight cultures; endogenous in cells; host or cells: Acinetobacter baumannii cells containing OXA-23 (crude freeze-thaw extract)
Procedure: For OXA-23 β-lactamase, crude β-lactamase extracts were prepared from 20 ml overnight cultures with shaking. Acenitobacter baumanni cells containing OXA-23 were further diluted 10-fold and grown to mid-log phase (OD at 600 nm, 0.5-0.8) in Mueller-Hinton II (MH-II) broth at 37° C. The cells were pelleted at 5000 g, washed and resuspended in 2 mL PBS pH 7.0. The β-lactamases were extracted by four cycles of freezing and thawing followed by centrifugation. β-lactamase activity in the extracts was measured with the chromogenic cephalosporin nitrocefin. The amount of protein in each β-lactamase preparation was determined by the bicinchoninic acid (BCA) assay.
as §1

[6] = test system: P. aeruginosa expressing the Class B metallo β-lactamase VIM-2; test: In vitro antibacterial assay of β-lactamase inhibition (broth microdilution MIC), P. aeruginosa VIM-2; format: cell-based; details: in presence of Ceftazidime 16 μg/mL (Examples 1-56)
In short: as §2

[7] = in presence of Ceftazidime 8 μg/ml (Examples 1-56)
[8] = nitrocefin 100 μM, 37° C., PBS pH 7.0, read-out: P99 AmpC IC50
[9] = in presence of Piperacillin 16 μg/ml (Examples 57-65)

T6 sequence (Q9L4P2 18-273): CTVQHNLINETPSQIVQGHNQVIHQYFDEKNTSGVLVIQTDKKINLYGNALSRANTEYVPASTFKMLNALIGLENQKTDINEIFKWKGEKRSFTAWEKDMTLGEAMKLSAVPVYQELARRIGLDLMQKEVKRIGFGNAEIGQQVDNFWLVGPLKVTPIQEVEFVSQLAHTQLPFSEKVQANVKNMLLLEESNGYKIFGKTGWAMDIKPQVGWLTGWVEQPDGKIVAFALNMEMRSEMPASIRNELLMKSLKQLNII
T5 sequence (P0A3M1 22-286): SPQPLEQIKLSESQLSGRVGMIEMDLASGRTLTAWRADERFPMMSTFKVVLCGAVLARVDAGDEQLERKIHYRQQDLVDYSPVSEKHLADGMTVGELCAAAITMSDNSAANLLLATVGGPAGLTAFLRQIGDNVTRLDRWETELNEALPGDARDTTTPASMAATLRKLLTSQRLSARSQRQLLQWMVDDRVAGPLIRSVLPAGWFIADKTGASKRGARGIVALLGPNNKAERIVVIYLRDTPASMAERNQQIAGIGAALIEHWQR
T2 sequence (Q9F663 25-293 limits assumed): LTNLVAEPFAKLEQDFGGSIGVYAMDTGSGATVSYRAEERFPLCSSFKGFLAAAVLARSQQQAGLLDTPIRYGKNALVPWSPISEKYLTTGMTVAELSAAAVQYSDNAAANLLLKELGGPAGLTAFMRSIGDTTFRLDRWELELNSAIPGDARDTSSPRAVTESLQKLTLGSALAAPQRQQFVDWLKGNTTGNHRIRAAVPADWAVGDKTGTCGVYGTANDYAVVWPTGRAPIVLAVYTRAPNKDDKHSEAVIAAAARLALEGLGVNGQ
T3 sequence (P05364 21-381): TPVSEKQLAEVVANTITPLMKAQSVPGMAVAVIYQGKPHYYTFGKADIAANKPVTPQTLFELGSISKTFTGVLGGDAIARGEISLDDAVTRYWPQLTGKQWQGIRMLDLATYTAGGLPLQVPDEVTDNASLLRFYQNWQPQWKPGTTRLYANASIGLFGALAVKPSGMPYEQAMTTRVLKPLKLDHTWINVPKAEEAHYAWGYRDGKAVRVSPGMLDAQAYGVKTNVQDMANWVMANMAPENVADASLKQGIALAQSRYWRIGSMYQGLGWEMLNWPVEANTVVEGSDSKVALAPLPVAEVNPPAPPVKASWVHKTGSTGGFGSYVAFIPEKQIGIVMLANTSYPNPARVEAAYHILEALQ
T4 sequence (Q9EXV5 entry or part of it): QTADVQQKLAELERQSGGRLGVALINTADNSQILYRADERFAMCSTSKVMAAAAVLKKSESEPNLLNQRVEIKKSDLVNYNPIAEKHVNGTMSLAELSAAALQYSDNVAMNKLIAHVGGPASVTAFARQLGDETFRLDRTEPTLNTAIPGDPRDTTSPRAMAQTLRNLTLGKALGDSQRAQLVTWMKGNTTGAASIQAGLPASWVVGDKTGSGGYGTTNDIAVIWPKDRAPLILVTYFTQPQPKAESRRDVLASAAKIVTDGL

Compound	IC50 [1] [nM]	MIC of example compound, E. coli SHV-5 [2, 7] [µg/mL]	IC50 (KPC-2 β-lactamase) [nM]	MIC of example compound, K. pneumoniae CTX-M-15 [3, 7] [µg/mL]	IC50 (p99 AmpC β-lactamase; [8]) [nM]	MIC of example compound, K. pneumoniae KPC-2 [4, 7] [µg/mL]	MIC of example compound, E. cloacae P99+ [5, 7] [µg/mL]	IC50 (CTX-M15 β-lactamase) [nM]	IC50 (SHV-5 β-lactamase) [nM]	IC50 (OXA-23 β-lactamase) [nM]	MIC of example compound, P. aeruginosa VIM-2 [6] [µg/mL]	MIC of example compound, E. coli SHV-5 [2, 9] [µg/mL]	MIC of example compound, K. pneumoniae CTX-M-15 [3, 9] [µg/mL]	MIC of example compound, K. pneumoniae KPC-2 [4, 9] [µg/mL]	MIC of example compound, E. cloacae P99+ [5, 9] [µg/mL]	IC50 (p99 AmpC β-lactamase) [nM]
NCc1cccc(C(=O)N[C@@H](Cc2cccc(C(=O)O)c2O)B(O)O)c1 [Example 1, 2(R)-3-[2-(3-(Aminomethyl)benzoylamino)-2-borono-ethyl]-2-hydroxy-benzoic acid hydrochloride]	152	4	20	1	1	0.125	0.25	3	653	64	8	–	–	–	–	–
Cl.NCc1ccc(C(=O)N[C@@H](Cc2cccc(C(=O)O)c2O)B(O)O)cc1 [Example 2, 2(R)-3-[2-(4-(Aminomethyl)benzoylamino)-2-borono-ethyl]-2-hydroxy-benzoic acid hydrochloride]	22	8	13	2	3	0.015	0.25	2	> 1000	> 1000	8	–	–	–	–	–
O=C(N[C@@H](Cc1cccc(C(=O)O)c1O)B(O)O)c1ccc(CN2CCOCC2)cc1 [Example 3, 2(R)-3-[2-(4-(Morpholinomethyl)benzoylamino)-2-borono-ethyl]-2-hydroxy-benzoic acid formate]	850	8	14	2	3	0.12	4	4	367	> 1000	>8	–	–	–	–	–
Cl.Nc1cc(C(=O)N[C@@H](Cc2cccc(C(=O)O)c2O)B(O)O)ccn1 [Example 8, (2R)-3-{2-[(2-Amino-pyridine-4-carbonyl)-amino]-2-borono-ethyl}-2-hydroxy-benzoic acid]	700	1	5	0.5	2	0.06	0.5	28	29	144	–	–	–	–	–	–
O=C(Cc1ccc(CN2CCCC2)cc1)N[C@@H](Cc1cccc(C(=O)O)c1O)B(O)O [Example 38, (1R)-[2-(4-pyrrolin-1-ylmethyl-phenyl)-acetylamino]-(3-carboxy-2-hydroxy)benzyl-methylboronic acid formate]	858	0.5	6	0.25	9	0.03	0.5	3	5	234	–	–	–	–	–	–
Nc1cccc[n+]1Cc1ccc(CC(=O)N[C@@H](Cc2cccc(C(=O)O)c2O)B(O)O)cc1 [Example 40, (1R)-2-amino-(4-{[2-(3-carboxy-2-hydroxy-phenyl-borono-ethylcarbamoyl]-methyl}-benzyl)-pyridinium formate]	> 1000	0.25	653	0.25	10	–	2	4	20	132	>8	–	–	–	–	–
Cl.NCc1cc(CC(=O)N[C@@H](Cc2cccc(C(=O)O)c2O)B(O)O)ccn1 [Example 63, (2R)-3-{2-[(2-Aminomethyl-pyridin-4-yl-acetyl)-amino]-2-borono-ethyl}-2-hydroxy-benzoic acid hydrochloride]	621	–	24	–	9	–	–	10	8	534	–	0.06	>16	0.125	4	–
N=C(N)NCc1cc(CC(=O)N[C@@H](Cc2cccc(C(=O)O)c2O)B(O)O)ccn1 [Example 64, (2R)-3-{2-[(2-Guanidinomethyl-pyridin-4-yl-acetyl)-amino]-2-borono-ethyl}-2-hydroxy-benzoic acid formate]	548	–	17	–	–	–	–	3	3	177	–	0.125	>16	0.125	4	8
